Patent publication US20220265723A1, “NON-VIRAL MODIFICATION OF MESENCHYMAL STEM CELLS” (NATIONAL UNIVERSITY OF SINGAPORE, priority 2019, published 2022)
Where two headings read alike, the source gives them in different places.

Legend:
[1] = cited from earlier work; for Potential of activation (fold): per enzyme/prodrug system
[2] = systems: CA/CPT-11, CD/5-FC, CPG2/CMDA, CJS278, Cyt-450, dCK/ara-C, HSV-TK, NR/CB1954, PNP/6-MePdR, TP/5′-DFUR, VZV-TK/ara-M, XGPRT/6-TX, 6-TG; cited from earlier work
CDy::UPRT_AT-MSCs = assay: Sensitivity of modified AT-MSCs to 5FC and 5FU, MTS assay; format: cell-based, human
Description: The cell viability at each time point was measured by standard MTS assay. At various time points, samples without 5FC treatment served as control. […] MTS assay were used to measure cell viability post treatment. Conditions without 5FU treatment was taken as 100%. Results were presented as mean±SD (n=4). […] Isotype antibodies served as respective controls. […] At the end of incubation, cells were stained with Alizarin red S. Calcium deposits stained with Alizarin red S were one of the phenotype indicating differentiated AT-MSCs. […] Fourteen days later, cells were stained with Oil Red-O. This dye stained for oil droplets visible in the cells, indicative of adipogenic differentiation. The images were captured at 20× magnification;
Quadruplicates of AT-MSC, MKN1, MKN45, MDA-MB-231 (10,000 cells per well) and U-251MG (4000 cells per well) for each treatment were plated into 96-well plates. […] One to five days later, plates were subjected to the CellTiter 96 Aqueous One Solution Cell Proliferation Assay (Promega). The colorimetric read out was measured spectrophotometrically at 490 nm. Results were expressed as the percentage of cell viability, in relative to cells in condition without 5-FC or 5-FU (set to 100%).

[3] = system: prodrug-activating enzyme of each system: CA, CD, CPG2, Cyt-450, dCK, HSV-TK, NR, PNP, TP, VZV-TK; conditions: systems: CA/CPT-11, CD/5-FC, CPG2/CMDA, Cyt-450/CP, IF, dCK/ara-C, HSV-TK/GCV, ACV, NR/CB1954, PNP/6-MePdR, TP/5′-DFUR, VZV-TK/ara-M; read-out: KM (S0.5); cited from earlier work
[4] = active drug formed from the prodrug of the system, read-out: Potency, IC50 (μM) Drug
[5] = prodrug of the enzyme/prodrug system, read-out: Potency, IC50 (μM) Prodrug

Compound	IC50 [1, 4] [µM]	IC50 [1, 5] [µM]	Degree of activation (fold) [2]	Km [3] [µM]	further results
O=c1[nH]c(=O)n([C@H]2C[C@H](O)[C@@H](CO)O2)cc1F [5-FUdR]	0.0023	–	–	–	–
Nc1nc(=S)c2[nH]cnc2[nH]1 [6-TG]	–	0.5	6-TG: 10 fold	–	–
Nc1nc(=O)[nH]cc1F [5FC, 5-fluorocytosine]	–	–	–	–	cell viability of CDy::UPRT modified AT-MSCs (CDy::UPRT_AT-MSCs; 150 μg/mL 5FC, over time): reduced cell viability over time
O=c1[nH]c(=S)c2[nH]cnc2[nH]1 [6-TX]	–	> 50	6-TX: >20; fold	–	–
COc1ncnc2c1ncn2[C@@H]1O[C@H](CO)[C@@H](O)[C@@H]1O [ara-M]	–	> 2000	55-600 fold	56	Potential of activation (fold) [1]: >2,000 fold
Cc1ncnc2nc[nH]c12	3.7	–	–	–	–
O=P1(N(CCCl)CCCl)NCCCO1 (centres unmarked) [CP]	–	~4000	–	300	–
COc1cccc2c1C(=O)c1c(O)c3c(c(O)c1C2=O)C[C@@](O)(C(=O)CO)C[C@@H]3O[C@H]1C[C@H](N)[C@H](O)[C@H](C)O1 [Doxorubicin]	0.012	–	11 fold	–	Potential of activation (fold) [1]: 21 fold
CCc1c2c(nc3ccc(O)cc13)-c1cc3c(c(=O)n1C2)COC(=O)[C@]3(O)CC [SN-38]	0.003 to 0.011	–	–	–	–
Nc1ccn([C@@H]2O[C@H](CO)[C@@H](O)[C@@H]2O)c(=O)n1 [ara-C]	–	0.3 to 0.6	2-100 fold	25.6	–
O=c1[nH]cc(F)c(=O)[nH]1 [5FU, 5-fluorouracil]	4 to 23.5	–	–	–	susceptibility of CDy::UPRT_AT-MSCs versus unmodified AT-MSCs (CDy::UPRT_AT-MSCs; 100 μg/mL 5FU, 5 days): increased susceptibility of suicide effect
NC(=O)c1cc(N2CC2)c([N+](=O)[O-])cc1[N+](=O)[O-] [CB1954]	–	> 1000	14-10,000 fold	900	Potential of activation (fold) [1]: >50,000 fold
C[C@H]1O[C@@H](n2cc(F)c(=O)[nH]c2=O)[C@H](O)[C@@H]1O [5′-DFUR]	–	17	165 fold	325 to 433	Potential of activation (fold) [1]: 7000 fold
CS(=O)(=O)OCCN(CCCl)c1ccc(C(=O)O)cc1 [CMBA]	8 to 65	–	–	–	–
CCc1c2c(nc3ccc(OC(=O)N4CCC(N5CCCCC5)CC4)cc13)-c1cc3c(c(=O)n1C2)COC(=O)[C@]3(O)CC [CPT-11]	–	1.6 to 8.1	–	–	–
Nc1nc(O)c2ncn(COC(CO)CO)c2n1 [GCV, ganciclovir]	–	200 to 600	–	–	–
Cc1ncnc2c1ncn2[C@H]1C[C@H](O)[C@@H](CO)O1 [6-MePdR]	–	> 200	40 fold	14 to 23	Potential of activation (fold) [1]: 25-1,000 fold
CS(=O)(=O)OCCN(CCCl)c1ccc(C(=O)N[C@@H](CCC(=O)O)C(=O)O)cc1 [CMDA]	–	1700 to 3120	–	3.4	–
O=P1(NCCCl)OCCCN1CCCl (centres unmarked) [IF]	–	~4000	–	480	–
